Among the data in publication PMC10349922 (Bioconjugate chemistry, 2023) are IC50 values, retold here.

This assay deals with human Galectin-3 (Gal-3); His-Galectin-3 (Homo sapiens, UniProt P17931). Put plainly: competitive enzyme-linked lectin assay. It is filed as binding. Conditions: His-Galectin-3 vs S0G2-BSA coated plate, PBS, r.t.
Chain of human Galectin-3 (Gal-3); His-Galectin-3 (P17931 2-250): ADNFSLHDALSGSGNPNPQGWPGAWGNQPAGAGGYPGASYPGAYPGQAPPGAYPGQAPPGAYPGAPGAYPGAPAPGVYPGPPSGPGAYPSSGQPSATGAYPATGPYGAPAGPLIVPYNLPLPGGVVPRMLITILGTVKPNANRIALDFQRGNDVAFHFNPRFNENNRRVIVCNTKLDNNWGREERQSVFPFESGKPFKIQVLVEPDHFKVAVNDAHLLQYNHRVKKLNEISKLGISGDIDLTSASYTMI

`CC(=O)N[C@@H]1[C@@H](O)[C@H](O[C@@H]2O[C@H](CO)[C@@H](O[C@@H]3O[C@H](CO[C@H]4O[C@H](CO)[C@@H](O)[C@H](O)[C@@H]4O[C@@H]4O[C@H](CO)[C@@H](O[C@@H]5O[C@H](CO)[C@H](O)[C@H](O)[C@H]5O)[C@H](O)[C@H]4NC(C)=O)[C@@H](O)[C@H](O[C@H]4O[C@H](CO)[C@@H](O)[C@H](O)[C@@H]4O[C@@H]4O[C@H](CO)[C@@H](O[C@@H]5O[C@H](CO)[C@H](O)[C@H](O)[C@H]5O)[C@H](O)[C@H]4NC(C)=O)[C@@H]3O)[C@H](O)[C@H]2NC(C)=O)[C@@H](CO)O[C@H]1NC(=O)C[C@H](N)C(=O)O` [compound 1, S0G2-Asn] had a half-inhibitory concentration (IC50) of 7.8 µM.
